Results as given in patent publication US5721207A, “Method for treatment of pain” (Innapharma, Inc., priority 1995, dated 1998).
Like-named read-outs stand apart in the source and are kept apart here.

How the values were obtained:
[1] = test system: rat; assay: Rat hot plate test, intrathecal elcatonin with 0.1% human serum albumin (Example 13); assay type: in vivo; conditions: 4.4 IU/kg intrathecal in 0.1% HSA, 5 day multiple administrations (FIG. 9)
Procedure: On each study day, a standard 25% (wt/vol) solution of HSA is diluted under aseptic conditions with physiological saline ([…] of NaCl, USP grade) to achieve the desired stock solution concentration of 0.2% (wt/vol).
Thirty-two male rats (320-420 g) are obtained, adapted, catheterized and recovered as described hereinabove. […] Group II rats are injected intrathecally with a dose of 4.4 IU/kg in physiological saline containing 0.1% HSA, in a volume of 10 μL/kg. Group III rats are injected with physiological saline containing 0.1% HSA, 10 μL/kg. Each dose is followed by a washout of 8 μL of physiological saline.
In each of the study groups, hot plate latencies are determined at 0 minutes (baseline, predose), 1 hour, 3 hours, 6 hours, and 24 hours following intrathecal injections on the 1st, 3rd and 5th study days.

[2] = test system: rat
Procedure: Intrathecal catheters were surgically implanted in the rats after application of anesthetic (Nembutal, 30 mg/kg, intraperitoneal) 5-7 days prior to the test procedure. The 5-7 day period prior to testing allowed for full recovery from the surgical procedures. […] Each catheter was anchored to the skull with cyanoacrylate adhesive, and the skull was closed with wound clips. The free end of each catheter was heat annealed; when compositions were to be injected via the intrathecal route each composition was introduced therein using a Hamilton needle inserted into the sealed catheter.
Pain sensitivity was assessed using a standard analgesiometric hot plate test (Woolfe and MacDonald (1944) J. Pharmacol. Exp. Ther. 80:300). The hot plate response was determined by placing a rat on a 55° C. copper hot plate enclosed in a plexiglass cylinder.
Because of the technical demands of these experiments, no more than 8-9 rats were tested on a given day. Sufficient animals were studied to obtain 10-11 evaluable rats per test condition. On the study day, animals were tested for baseline hot plate responses, and then received bolus injections of test analgesic or physiological saline (control). Hot plate responses were assessed again at 15 min, 30 min, 1 hr, 3 hr, 6 hr and 24 hr after intrathecal injection of test compound or vehicle control.
Ninety-six (96) rats, ranging in weight from 320 g to 420 g, were used in this study. Catheters were implanted and recovery was allowed for as described hereinabove. […] Drug or saline vehicle doses were administered using Hamilton needles inserted into the catheters, with a dose volumes of 37.5 μL/kg followed by a 10 μL saline catheter wash-out. Baseline (pre-drug) and responses at 15 min, 30 min, 1 hr, 3 hr, 6 hr and 24 hr after drug or vehicle injection were determined.

## [Des-Cys^1,ASU^7 ]-Calcitonin, Eel [Elcatonin]
[1]
  hot plate latency: increase in rat hot plate latency
[2]; 2.4 IU/kg (0.39 μg/kg, 0.12 nmol/kg) intrathecal single, 0 hr (baseline)
  Hot Plate Latency (Mean ± SEM): 13.54 ± 1.91 s
[2]; 2.4 IU/kg (0.39 μg/kg, 0.12 nmol/kg) intrathecal single, 0.25 hr
  Hot Plate Latency (Mean ± SEM): 19.70 ± 1.75 s
[2]; 2.4 IU/kg (0.39 μg/kg, 0.12 nmol/kg) intrathecal single, 0.5 hr
  Hot Plate Latency (Mean ± SEM): 23.90 ± 3.12 s
[2]; 2.4 IU/kg (0.39 μg/kg, 0.12 nmol/kg) intrathecal single, 1 hr
  Hot Plate Latency (Mean ± SEM): 24.68 ± 1.80 s
[2]; 2.4 IU/kg (0.39 μg/kg, 0.12 nmol/kg) intrathecal single, 3 hr
  Hot Plate Latency (Mean ± SEM): 13.0 ± 0.7 s
[2]; 2.4 IU/kg (0.39 μg/kg, 0.12 nmol/kg) intrathecal single, 6 hr
  Hot Plate Latency (Mean ± SEM): 12.1 s
[2]; 2.4 IU/kg (0.39 μg/kg, 0.12 nmol/kg) intrathecal single, 24 hr
  Hot Plate Latency (Mean ± SEM): 10.8 ± 0.7 s
[2]; 2.4 IU/kg or 0.39 μg/kg intrathecal
  response at the lowest dose: slightly smaller response
[2]; 3.6-6.0 IU/kg intrathecal
  differences in hot plate latencies between doses: no apparent differences in hot plate latencies
[2]; 3.6 IU/kg (0.58 μg/kg, 0.18 nmol/kg) intrathecal single, 0 hr (baseline)
  Hot Plate Latency (Mean ± SEM): 12.92 ± 1.4 s
[2]; 3.6 IU/kg (0.58 μg/kg, 0.18 nmol/kg) intrathecal single, 0.25 hr
  Hot Plate Latency (Mean ± SEM): 21.04 ± 2.22 s
[2]; 3.6 IU/kg (0.58 μg/kg, 0.18 nmol/kg) intrathecal single, 0.5 hr
  Hot Plate Latency (Mean ± SEM): 26.03 ± 3.08 s
[2]; 3.6 IU/kg (0.58 μg/kg, 0.18 nmol/kg) intrathecal single, 1 hr
  Hot Plate Latency (Mean ± SEM): 26.08 ± 3.69 s
[2]; 3.6 IU/kg (0.58 μg/kg, 0.18 nmol/kg) intrathecal single, 3 hr
  Hot Plate Latency (Mean ± SEM): 23.14 ± 3.05 s
[2]; 3.6 IU/kg (0.58 μg/kg, 0.18 nmol/kg) intrathecal single, 6 hr
  Hot Plate Latency (Mean ± SEM): 20.37 s
[2]; 3.6 IU/kg (0.58 μg/kg, 0.18 nmol/kg) intrathecal single, 24 hr
  Hot Plate Latency (Mean ± SEM): 15.79 ± 2.40 s
[2]; 4.4 IU/kg ([…], 0.22 nmol/kg) intrathecal single, 0 hr (baseline)
  Hot Plate Latency (Mean ± SEM): 13.68 ± 1.10 s
[2]; 4.4 IU/kg ([…], 0.22 nmol/kg) intrathecal single, 0.25 hr
  Hot Plate Latency (Mean ± SEM): 21.89 ± 3.12 s
[2]; 4.4 IU/kg ([…], 0.22 nmol/kg) intrathecal single, 0.5 hr
  Hot Plate Latency (Mean ± SEM): 26.03 ± 3.36 s
[2]; 4.4 IU/kg ([…], 0.22 nmol/kg) intrathecal single, 1 hr
  Hot Plate Latency (Mean ± SEM): 26.20 ± 2.37 s
[2]; 4.4 IU/kg ([…], 0.22 nmol/kg) intrathecal single, 3 hr
  Hot Plate Latency (Mean ± SEM): 21.11 ± 2.18 s
[2]; 4.4 IU/kg ([…], 0.22 nmol/kg) intrathecal single, 6 hr
  Hot Plate Latency (Mean ± SEM): 20.02 s
[2]; 4.4 IU/kg ([…], 0.22 nmol/kg) intrathecal single, 24 hr
  Hot Plate Latency (Mean ± SEM): 11.78 ± 1.75 s
[2]; 5.2 IU/kg (0.84 μg/kg, 0.26 nmol/kg) intrathecal single, 0 hr (baseline)
  Hot Plate Latency (Mean ± SEM): 13.41 ± 0.92 s
[2]; 5.2 IU/kg (0.84 μg/kg, 0.26 nmol/kg) intrathecal single, 0.25 hr
  Hot Plate Latency (Mean ± SEM): 27.89 ± 3.10 s
[2]; 5.2 IU/kg (0.84 μg/kg, 0.26 nmol/kg) intrathecal single, 0.5 hr
  Hot Plate Latency (Mean ± SEM): 31.55 ± 4.17 s
[2]; 5.2 IU/kg (0.84 μg/kg, 0.26 nmol/kg) intrathecal single, 1 hr
  Hot Plate Latency (Mean ± SEM): 25.82 ± 3.79 s
[2]; 5.2 IU/kg (0.84 μg/kg, 0.26 nmol/kg) intrathecal single, 3 hr
  Hot Plate Latency (Mean ± SEM): 28.81 ± 3.41 s
[2]; 5.2 IU/kg (0.84 μg/kg, 0.26 nmol/kg) intrathecal single, 6 hr
  Hot Plate Latency (Mean ± SEM): 22.97 s
[2]; 5.2 IU/kg (0.84 μg/kg, 0.26 nmol/kg) intrathecal single, 24 hr
  Hot Plate Latency (Mean ± SEM): 12.36 ± 1.69 s
[2]; 6.0 IU/kg (0.97 μg/kg, 0.30 nmol/kg) intrathecal single, 0 hr (baseline)
  Hot Plate Latency (Mean ± SEM): 11.38 ± 0.89 s
[2]; 6.0 IU/kg (0.97 μg/kg, 0.30 nmol/kg) intrathecal single, 0.25 hr
  Hot Plate Latency (Mean ± SEM): 25.22 ± 4.13 s
[2]; 6.0 IU/kg (0.97 μg/kg, 0.30 nmol/kg) intrathecal single, 0.5 hr
  Hot Plate Latency (Mean ± SEM): 28.91 ± 3.40 s
[2]; 6.0 IU/kg (0.97 μg/kg, 0.30 nmol/kg) intrathecal single, 1 hr
  Hot Plate Latency (Mean ± SEM): 24.48 ± 3.35 s
[2]; 6.0 IU/kg (0.97 μg/kg, 0.30 nmol/kg) intrathecal single, 3 hr
  Hot Plate Latency (Mean ± SEM): 26.60 ± 3.87 s
[2]; 6.0 IU/kg (0.97 μg/kg, 0.30 nmol/kg) intrathecal single, 6 hr
  Hot Plate Latency (Mean ± SEM): 24.69 s
[2]; 6.0 IU/kg (0.97 μg/kg, 0.30 nmol/kg) intrathecal single, 24 hr
  Hot Plate Latency (Mean ± SEM): 11.17 ± 1.80 s
[2]; 6 hours post-injection, all tested doses of elcatonin (0.12-0.30 nmol/kg)
  hot plate analgesia compared with morphine sulfate (49.42-164.73 nmol/kg): more potent hot plate analgesia than all tested doses of morphine sulfate
[2]; intrathecal
  duration of analgesia, elcatonin compared with morphine: generally longer duration of analgesic activity than morphine
  molar concentration producing potent analgesia, lower than morphine sulfate by: approximately 1000 fold
